From patent publication US9980924B2, “Topical pterostilbene compositions for use in treating UV-induced loss of barrier function in skin” (The Regents of the University of California, priority 2014, dated 2018)
“Also recorded” adds a separate entry of the source.

Columns and labels:
human liver microsomes = test: in vitro glucuronidation assay with pooled human liver microsomes; format: in vitro ADME; conditions: 100 μg pooled human liver microsomes (n=20), 500 μM compound
Description: Human liver microsomes metabolize resveratrol much faster than pterostilbene. […] HPLC chromatographs are presented depicting either parent compound or indicated glucuronide metabolite. Glucuronide metabolite peaks were confirmed by subsequent treatment with β-glucuronidase (data not shown). Detection of peaks by UV/VIS detector at 308 nm.
Specifically, in vitro glucuronidation assays were performed as previously described in one co-inventor's work (Dellinger, R. W., et al., “Glucuronidation of PhIP and N—OH-PhIP by UDP-glucuronosyltransferase 1A10,” Carcinogenesis (2007) 28: 2412-8; Dellinger, R. W., et al., “Importance of UDP-glucuronosyltransferase 1A10 (UGT1A10) in the detoxification of polycyclic aromatic hydrocarbons: decreased glucuronidative activity of the UGT1A10139Lys isoform,” Drug Metab. Dispos. (2006) 34: 943-9; Chen, G., Dellinger, R. W., et al., “Glucuronidation of tobacco-specific nitrosamines by UGT2B10,” Drug Metab. Dispos.

SKH-1 mice = test: UV-B-induced skin damage and loss of barrier function (redness, TEWL) in SKH-1 mice, topical treatment; format: in vivo; conditions: topical 10 μmol/0.2 ml acetone/mouse 30 minutes before 180 mJ/cm^2 UV-B, every 2 days, 7 treatments; for prevention of UV-mediated transepidermal water loss (TEWL) / loss of barrier function: versus vehicle+UV-B
From the text: FIG. 2 depicts the manner in which pterostilbene prevents UV-B induced damage in the skin of SKH-1 mice. […] Photographs show representative mice after 4th treatment.
FIG. 3 depicts the manner in which pterostilbene prevents UV-mediated loss of skin barrier function in SKH-1 mice after exposure to UV-B radiation as described above for FIG. 2. TEWL measurements are expressed in g/m^2·h (and labeled ‘TD Water Loss’).
UV-B exposure. Mice were exposed to a single dose of 180mJ/cm^2 UVB radiation delivered via broadband UVB lamps (TL 40W/12 RS; Philips) emitting 290-350 nm light with a peak emission at 312 nm. The irradiance was measured using a thermopile sensor (818P-001-12; Newport Inc., Irvine, Calif.) and power meter (842-PE; Newport Inc.).
TEWL measurement. For transepidermal water loss (TEWL) a closed measurement chamber device (VapoMeter, Delfin Technologies Ltd, Kuopio, Finland) measuring flux density (gram/m^2·h) was used applying the sensor with even and constant pressure to dorsal skin by a single operator per manufacturer's instructions.
Statistics. All statistical analyses were performed using CRAN R, version 3.0.0, an open-source program of The R Foundation for Statistical Computing. Linear mixed-effect models were fit for each endpoint with a random effect for the mouse and fixed effects for UV exposure, treatment group, and their interaction.
Hairless SKH-1 mice were used to evaluate the effectiveness of pterostilbene at preventing UV-mediated damage in skin. The SKH-1 model is ideally suited for this purpose and is commonly used in preclinical studies and yielded valuable results. […] To ascertain if pterostilbene could also prevent those molecular alterations, we replicated these experiments. […] For all topical treatments 200 μl total volume was applied to the back skin of the mouse. For acetone group, 200 μl of acetone was applied. […] These mice were treated every 2 days for 7 total treatments. […] 24 hrs after last treatment, mice were euthanized, skin bi-fold measurements taken and back skins collected. […] This prevention of visual skin damage by pterostilbene correlated nicely with the prevention of loss of barrier function. […] Therefore pterostilbene prevented UV-induced loss of barrier function of the skin of SKH-1 mice.

[1] = cited from earlier work
mouse skin = conditions: cited from earlier work
[2] = humans; cited from earlier work
[3] = rats; cited from earlier work
[4] = 125 mg orally twice a day; cited from earlier work
mouse epidermis = conditions: cited from earlier work

Q: For `Oc1ccc(C=Cc2cc(O)cc(O)c2)cc1` [resveratrol], which “conversion to glucuronides after 2 hours (in words)” value (human liver microsomes) is on record?
A: The value was “almost completely converted to its glucuronides”.

Q: And the “redness (sunburn) on back skin after UV-B” value (SKH-1 mice)?
A: Its value is “able to limit the amount of redness observed on the back, it did not prevent it”.

Q: What about the “prevention of UV-mediated transepidermal water loss (TEWL) / loss of barrier function” value (from here on “prevention … (TEWL) / loss of barrier function”) (SKH-1 mice) of the same compound?
A: Its value is “did not prevent TEWL”.

Q: What about the “prevention … (TEWL) / loss of barrier function” value (SKH-1 mice; listed as Resveratrol) of the same compound?
A: The value was “ineffective”.

Q: And the “half life t1/2 in blood” value [1]?
A: The value was “about 14 minutes”.

Q: And the “UV-B mediated cell damage (including hyperplasia) in mouse skin” value (mouse skin; given orally or applied topically)?
A: Its value is “prevents UV-B mediated cell damage (including hyperplasia)”.

Q: What about the “UV-induced skin cancer progression” value (mouse skin; several mouse studies) of the same compound?
A: The value was “block UV-induced skin cancer progression”.

Q: What about the “bioavailability (in words)” value [2] of the same compound?
A: The value was “poor bioavailability”.

Q: For `COc1cc(/C=C/c2ccc(O)cc2)cc(OC)c1` [pterostilbene, 3,5-dimethoxy-4′-hydroxy-trans-stilbene], which “fraction metabolized (glucuronidated) after 2 hours” value (human liver microsomes) is on record?
A: The value was 20%.

Q: What about the “redness (sunburn) on back skin after UV-B” value (SKH-1 mice) of the same compound?
A: The value was “no redness was observed on any of the 5 mice”.

Q: And the “prevention … (TEWL) / loss of barrier function” value (SKH-1 mice)?
A: The value was “prevents TEWL after UV exposure; also recorded: prevented UV-mediated TEWL”.

Q: What about the “half life t1/2 in blood” value [1] of the same compound?
A: The value was “about 105 minutes”.

Q: And the “increased bioavailability in comparison to resveratrol” value [3]?
A: The value was 5 fold.

Q: What about the overall blood pressure [4] of the same compound?
A: The overall blood pressure was “reduction in overall blood pressure was observed”.

Q: What about the toxicity in patients [4] of the same compound?
A: Its toxicity in patients is “no toxicity reported”.

Q: What about the “COX-2 activation and TPA-induced tumor formation in mouse epidermis in vivo” value (mouse epidermis) of the same compound?
A: Its value is “prevent”.
